Measurements taken from PMC10518257 (Nature Cancer, 2023).

Tests used:
Assay in all cases: Kinase selectivity profiling at a single concentration (Carna Biosciences)
Assay type in all cases: biochemical
[1] = molecular target: T1, panel of 255 (vepafestinib) or 256 (all other inhibitors) recombinant kinases (Homo sapiens, UniProt P24941); settings: 22 nM
T1 construct: purchased Carna Biosciences

[2] = molecular target: T2, panel of 255 (vepafestinib) or 256 (all other inhibitors) recombinant kinases (Homo sapiens, UniProt P23458); settings: 17 nM
T2 construct: purchased Carna Biosciences
T2 sequence (P23458 whole entry): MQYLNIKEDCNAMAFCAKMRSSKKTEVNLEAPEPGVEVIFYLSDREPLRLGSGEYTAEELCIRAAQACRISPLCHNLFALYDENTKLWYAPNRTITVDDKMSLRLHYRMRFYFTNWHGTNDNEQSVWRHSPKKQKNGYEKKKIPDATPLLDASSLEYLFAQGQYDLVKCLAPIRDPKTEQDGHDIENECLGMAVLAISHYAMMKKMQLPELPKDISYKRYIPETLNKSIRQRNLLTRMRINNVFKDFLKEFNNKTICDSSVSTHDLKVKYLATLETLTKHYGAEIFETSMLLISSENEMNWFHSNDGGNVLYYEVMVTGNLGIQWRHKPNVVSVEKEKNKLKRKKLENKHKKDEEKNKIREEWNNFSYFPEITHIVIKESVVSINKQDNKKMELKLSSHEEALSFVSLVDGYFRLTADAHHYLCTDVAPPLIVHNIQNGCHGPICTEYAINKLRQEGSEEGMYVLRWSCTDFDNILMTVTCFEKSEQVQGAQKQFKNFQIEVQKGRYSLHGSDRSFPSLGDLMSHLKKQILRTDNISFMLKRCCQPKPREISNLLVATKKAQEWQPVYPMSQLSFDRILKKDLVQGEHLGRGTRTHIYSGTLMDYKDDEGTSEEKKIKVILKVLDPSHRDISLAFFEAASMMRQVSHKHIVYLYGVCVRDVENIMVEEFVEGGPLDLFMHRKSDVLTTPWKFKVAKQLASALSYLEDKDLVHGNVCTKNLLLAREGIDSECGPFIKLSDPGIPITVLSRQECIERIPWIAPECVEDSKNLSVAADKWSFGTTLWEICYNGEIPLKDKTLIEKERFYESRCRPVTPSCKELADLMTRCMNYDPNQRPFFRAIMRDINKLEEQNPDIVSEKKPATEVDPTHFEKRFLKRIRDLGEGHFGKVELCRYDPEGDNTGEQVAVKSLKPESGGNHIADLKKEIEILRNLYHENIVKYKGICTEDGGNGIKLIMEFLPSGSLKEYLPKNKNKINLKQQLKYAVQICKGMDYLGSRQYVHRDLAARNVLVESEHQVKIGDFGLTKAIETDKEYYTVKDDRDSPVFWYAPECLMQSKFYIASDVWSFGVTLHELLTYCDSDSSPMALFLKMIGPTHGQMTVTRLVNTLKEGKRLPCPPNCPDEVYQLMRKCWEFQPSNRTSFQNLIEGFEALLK

[3] = molecular target: T3, panel of 255 (vepafestinib) or 256 (all other inhibitors) recombinant kinases (Homo sapiens, UniProt P12931); settings: 17 nM
T3 construct: purchased Carna Biosciences
T3 sequence (P12931 whole entry): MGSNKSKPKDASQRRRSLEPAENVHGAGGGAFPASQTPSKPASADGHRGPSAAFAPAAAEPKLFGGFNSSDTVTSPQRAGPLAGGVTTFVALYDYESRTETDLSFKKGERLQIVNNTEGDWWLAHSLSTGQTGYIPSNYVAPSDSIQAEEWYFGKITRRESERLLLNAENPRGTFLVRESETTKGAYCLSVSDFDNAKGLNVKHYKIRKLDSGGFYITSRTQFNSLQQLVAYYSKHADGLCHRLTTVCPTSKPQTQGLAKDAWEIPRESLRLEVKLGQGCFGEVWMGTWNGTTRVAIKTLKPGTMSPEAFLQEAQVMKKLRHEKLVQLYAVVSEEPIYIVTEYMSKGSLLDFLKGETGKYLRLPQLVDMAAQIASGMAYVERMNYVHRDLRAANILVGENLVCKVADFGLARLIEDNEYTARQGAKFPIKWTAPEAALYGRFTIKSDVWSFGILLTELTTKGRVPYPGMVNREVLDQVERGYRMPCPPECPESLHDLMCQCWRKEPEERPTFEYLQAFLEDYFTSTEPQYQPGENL

[4] = molecular target: T4, panel of 255 (vepafestinib) or 256 (all other inhibitors) recombinant kinases (Homo sapiens, UniProt O60674); settings: 17 nM
T4 construct: purchased Carna Biosciences
T4 sequence (O60674 whole entry): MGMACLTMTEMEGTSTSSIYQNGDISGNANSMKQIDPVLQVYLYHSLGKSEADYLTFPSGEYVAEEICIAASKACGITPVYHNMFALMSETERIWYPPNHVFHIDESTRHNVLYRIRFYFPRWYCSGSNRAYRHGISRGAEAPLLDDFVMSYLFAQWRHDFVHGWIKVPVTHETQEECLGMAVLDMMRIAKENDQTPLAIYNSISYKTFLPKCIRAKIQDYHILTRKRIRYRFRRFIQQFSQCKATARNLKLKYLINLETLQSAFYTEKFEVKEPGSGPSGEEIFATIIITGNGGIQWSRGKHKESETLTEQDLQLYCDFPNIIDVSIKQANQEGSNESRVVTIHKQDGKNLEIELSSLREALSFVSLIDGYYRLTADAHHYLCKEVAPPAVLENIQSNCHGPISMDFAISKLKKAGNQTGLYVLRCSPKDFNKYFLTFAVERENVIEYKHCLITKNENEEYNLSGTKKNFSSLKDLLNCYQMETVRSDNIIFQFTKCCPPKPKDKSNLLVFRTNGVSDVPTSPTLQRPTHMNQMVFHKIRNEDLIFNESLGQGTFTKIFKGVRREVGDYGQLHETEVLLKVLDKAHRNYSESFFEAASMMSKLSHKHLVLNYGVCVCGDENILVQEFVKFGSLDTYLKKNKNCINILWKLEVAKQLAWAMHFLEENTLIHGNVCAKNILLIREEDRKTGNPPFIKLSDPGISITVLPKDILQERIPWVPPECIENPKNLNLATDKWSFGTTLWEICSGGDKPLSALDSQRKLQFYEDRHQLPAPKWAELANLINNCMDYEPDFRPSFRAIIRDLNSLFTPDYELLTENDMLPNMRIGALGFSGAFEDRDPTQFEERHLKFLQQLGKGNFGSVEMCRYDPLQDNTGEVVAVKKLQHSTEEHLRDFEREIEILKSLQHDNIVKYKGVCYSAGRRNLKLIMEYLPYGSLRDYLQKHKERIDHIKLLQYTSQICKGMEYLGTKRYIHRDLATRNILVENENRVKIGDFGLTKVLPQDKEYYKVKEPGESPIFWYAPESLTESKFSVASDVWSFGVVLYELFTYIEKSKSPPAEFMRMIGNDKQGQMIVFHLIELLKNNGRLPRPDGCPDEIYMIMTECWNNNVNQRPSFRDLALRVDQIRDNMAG

SMILES	% Inhibiton CDK2/CycA2 [1] [%]	% Inhibiton JAK1 [2] [%]	% Inhibiton SRC [3] [%]	% Inhibiton JAK2 [4] [%]
COc1ccc(CN2C3CC2CN(c2ccc(-c4cc(OCC(C)(C)O)cn5ncc(C#N)c45)cn2)C3)cn1 [Selpercatinib]	17.9			
CO[C@]1(C(=O)N[C@@H](C)c2ccc(-n3cc(F)cn3)nc2)CC[C@H](c2nc(C)cc(Nc3cc(C)[nH]n3)n2)CC1 [Pralsetinib]		89.1	34.5	101.5
